PMC10052652 (Molecules, 2023)
Values joined by “and” are separate entries in the source; they are usually repeats but may differ in a detail not shown here. Identical values can stand only once. Like-named read-outs stand apart in the source and are kept apart here.

Key:
[1] = cited from earlier work
[2] = system: HCT116 cells; experiment: Cytotoxic activity, MTT assay, HCT116; assay type: cell-based, human
Method: The cancer cell lines used in this study were HCT116 (colorectal carcinoma), IGROV1 (ovarian cancer), OVCAR3 (ovarian cancer), and MCF7 (mammary gland/breast cancer). […] Cell lines were maintained in culture and were incubated at 37 °C in an incubator with 5% CO2 in a humidified atmosphere. All tests were established at 80% of confluence, and viability was estimated with a trypan blue exclusion assay.
The cytotoxic activities of molecules against cancer cell lines were evaluated using an MTT assay. The MTT colorimetric assay was performed using 96-well plates. Cells were seeded in a 96-well plate, at a concentration of 10 × 10^3 cells/well for HCT116 and 12 × 10^3 cells/well for MCF7, IGROV1, and OVAR. Adherent cells were dispatched and incubated at 37 °C overnight in a 5% CO2-enriched atmosphere. […] After that, the medium was removed, and cells were treated with 50 µL of 3-(4,5-dimethylthazolk-2-yl)-2,5-diphenyl tetrazolium bromide (MTT) solution (3 mg/mL in PBS) at 37 °C for 20 to 40 min. To dissolve the […], we added 80 µL of 100% DMSO. Optical density was measured at 540 nm. All tests were established in triplicate. […]

[3] = system: Aβ1-40-induced dementia; set-up: method as in PMID 25274114; conditions: rats ref 20; cited from earlier work
[4] = biological target: T1, superoxide dismutase (SOD) (Homo sapiens, UniProt P00441); assay type: biochemical; conditions: at 100 µM
T1 sequence (P00441 whole entry): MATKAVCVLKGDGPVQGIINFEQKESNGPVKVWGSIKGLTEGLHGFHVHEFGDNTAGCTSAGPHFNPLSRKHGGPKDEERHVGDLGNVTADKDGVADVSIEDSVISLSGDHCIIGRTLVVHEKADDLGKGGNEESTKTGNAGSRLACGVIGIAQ

[5] = biological target: 12-lipoxygenase; set-up: method as in PMID 11447334; conditions: previous report ref 22; cited from earlier work
[6] = biological target: T1, superoxide dismutase (SOD); experiment: biochemical
Method: Pyrogallol auto-oxidation due to oxygen in the air can be inhibited by an enzyme that is naturally present in the body: superoxide dismutase (SOD). Furthermore, variations in the pyrogallol auto-oxidation rate in the presence of SOD were evaluated. Tests were carried out in triplicate. The objective was to find an inhibitor of the auto-oxidation of pyrogallol in the presence of a SOD enzyme solution. Samples were tested at a concentration of 50 µg/mL, followed by incubation for 4 min at 25 °C. […] The self-oxidation of pyrogallol was evaluated in the absence of the enzyme. For this, 30 µL of pyrogallol was added to 120 µL of tris buffer (in place of the SOD) (pH 8.5), then followed by the same steps of incubating a positive control (without the molecule); this was performed in the presence of 5% of DMSO to evaluate the percentage of SOD inhibition activity on the auto-oxidation of pyrogallol.

[7] = system: porcine pancreas α-amylase; set-up: method as in doi:10.15436/2377-0619.15.042; conditions: at 1 mM, different protocols (chromogenic substrate p-nitrophenyl-α-D-maltopentaoside) ref 18; cited from earlier work
[8] = system: MCF7 cells; experiment: Cytotoxic activity, MTT assay, MCF7; assay type: cell-based, human
Method: Optical density was measured at 540 nm. All tests were established in triplicate.

[9] = biological target: acetylcholinesterase (AChE) (Homo sapiens, UniProt P22303); experiment: biochemical
Sequence of acetylcholinesterase (AChE) (P22303 32-614, species assumed): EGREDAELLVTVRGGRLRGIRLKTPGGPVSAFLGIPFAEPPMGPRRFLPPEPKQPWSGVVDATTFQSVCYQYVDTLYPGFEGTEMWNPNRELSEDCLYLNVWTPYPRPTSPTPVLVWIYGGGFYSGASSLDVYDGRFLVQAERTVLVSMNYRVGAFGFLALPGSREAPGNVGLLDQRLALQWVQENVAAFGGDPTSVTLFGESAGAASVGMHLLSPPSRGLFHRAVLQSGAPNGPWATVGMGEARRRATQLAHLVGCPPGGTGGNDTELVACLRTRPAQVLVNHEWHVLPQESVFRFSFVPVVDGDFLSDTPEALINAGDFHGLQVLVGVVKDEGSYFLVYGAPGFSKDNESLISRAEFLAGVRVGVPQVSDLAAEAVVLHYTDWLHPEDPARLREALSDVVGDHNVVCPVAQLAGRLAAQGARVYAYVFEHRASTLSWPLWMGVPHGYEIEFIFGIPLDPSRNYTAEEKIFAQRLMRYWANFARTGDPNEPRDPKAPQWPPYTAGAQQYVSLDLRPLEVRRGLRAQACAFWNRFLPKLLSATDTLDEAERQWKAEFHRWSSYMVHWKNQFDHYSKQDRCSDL
Method: The enzymatic activity was assessed via a modified colorimetric Ellman′s method. First, 50 µL of Tris-HCl buffer (pH 8), 25µL of a buffer solution of the sample (50 µg/mL), and 25 µL of an acetylcholinesterase (AChE) enzyme solution containing 2.8 U/mL were mixed. A reaction was then initiated via the addition of 125 µL of 3 mM […]. After incubation for 15 min at 25 °C, 25 µL of a solution of iodide acetylthiocholine15 mM was added to a 96-well microplate. […] Inhibition (%) was calculated in the following way: Inhibition (%) = [(A control − A sample)/A control] × 100, where (A sample) is the absorbance of the molecule containing the reaction and (A control) is the absorbance of the reaction control. Tests were carried out in triplicate.

[10] = biological target: xanthine oxidase (XOD) (Homo sapiens, UniProt P47989); assay type: biochemical; conditions: at 100 µM
Sequence of xanthine oxidase (XOD) (P47989 whole entry, species assumed): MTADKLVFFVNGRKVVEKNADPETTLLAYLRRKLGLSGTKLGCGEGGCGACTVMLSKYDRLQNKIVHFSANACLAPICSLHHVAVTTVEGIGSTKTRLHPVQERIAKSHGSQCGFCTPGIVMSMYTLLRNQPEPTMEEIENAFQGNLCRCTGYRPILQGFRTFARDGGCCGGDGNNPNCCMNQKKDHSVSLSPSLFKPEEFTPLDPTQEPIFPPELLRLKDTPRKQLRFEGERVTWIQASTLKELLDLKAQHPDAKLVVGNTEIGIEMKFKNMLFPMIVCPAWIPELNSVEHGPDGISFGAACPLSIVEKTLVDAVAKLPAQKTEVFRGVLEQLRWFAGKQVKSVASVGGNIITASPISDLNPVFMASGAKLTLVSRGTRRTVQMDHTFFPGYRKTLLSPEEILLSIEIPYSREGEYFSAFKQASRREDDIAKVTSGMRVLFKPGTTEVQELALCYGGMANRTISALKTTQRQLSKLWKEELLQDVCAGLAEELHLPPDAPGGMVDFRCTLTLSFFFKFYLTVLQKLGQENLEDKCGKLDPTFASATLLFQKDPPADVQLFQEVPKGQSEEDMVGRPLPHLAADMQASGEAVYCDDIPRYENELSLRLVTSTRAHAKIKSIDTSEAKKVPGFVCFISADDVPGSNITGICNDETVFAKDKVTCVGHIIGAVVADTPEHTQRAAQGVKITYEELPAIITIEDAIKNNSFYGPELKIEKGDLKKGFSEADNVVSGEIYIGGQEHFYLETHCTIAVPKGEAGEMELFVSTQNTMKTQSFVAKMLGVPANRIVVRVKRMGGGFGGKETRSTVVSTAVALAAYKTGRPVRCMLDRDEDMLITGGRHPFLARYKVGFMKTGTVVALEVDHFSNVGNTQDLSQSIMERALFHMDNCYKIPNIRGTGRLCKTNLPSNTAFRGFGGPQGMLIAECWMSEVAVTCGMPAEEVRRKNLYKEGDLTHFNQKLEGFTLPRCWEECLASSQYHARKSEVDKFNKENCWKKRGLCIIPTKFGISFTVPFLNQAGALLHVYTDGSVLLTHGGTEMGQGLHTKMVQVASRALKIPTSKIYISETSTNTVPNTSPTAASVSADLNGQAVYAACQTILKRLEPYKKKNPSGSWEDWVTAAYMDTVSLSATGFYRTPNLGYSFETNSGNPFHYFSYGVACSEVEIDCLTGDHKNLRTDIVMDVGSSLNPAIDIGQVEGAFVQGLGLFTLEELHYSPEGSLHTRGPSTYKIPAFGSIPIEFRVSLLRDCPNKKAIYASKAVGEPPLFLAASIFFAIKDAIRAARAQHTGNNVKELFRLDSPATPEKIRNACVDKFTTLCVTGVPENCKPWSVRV

[11] = set-up: method as in PMID 26504472; conditions: tested at 147.78 µM ref 17; cited from earlier work
[12] = biological target: T2, 15-lipoxygenase (Glycine max, UniProt P08170); experiment: Anti-inflammatory activity (anti 15-lipoxygenase); assay type: biochemical; conditions: at 100 µM
T2 sequence (P08170 1-839): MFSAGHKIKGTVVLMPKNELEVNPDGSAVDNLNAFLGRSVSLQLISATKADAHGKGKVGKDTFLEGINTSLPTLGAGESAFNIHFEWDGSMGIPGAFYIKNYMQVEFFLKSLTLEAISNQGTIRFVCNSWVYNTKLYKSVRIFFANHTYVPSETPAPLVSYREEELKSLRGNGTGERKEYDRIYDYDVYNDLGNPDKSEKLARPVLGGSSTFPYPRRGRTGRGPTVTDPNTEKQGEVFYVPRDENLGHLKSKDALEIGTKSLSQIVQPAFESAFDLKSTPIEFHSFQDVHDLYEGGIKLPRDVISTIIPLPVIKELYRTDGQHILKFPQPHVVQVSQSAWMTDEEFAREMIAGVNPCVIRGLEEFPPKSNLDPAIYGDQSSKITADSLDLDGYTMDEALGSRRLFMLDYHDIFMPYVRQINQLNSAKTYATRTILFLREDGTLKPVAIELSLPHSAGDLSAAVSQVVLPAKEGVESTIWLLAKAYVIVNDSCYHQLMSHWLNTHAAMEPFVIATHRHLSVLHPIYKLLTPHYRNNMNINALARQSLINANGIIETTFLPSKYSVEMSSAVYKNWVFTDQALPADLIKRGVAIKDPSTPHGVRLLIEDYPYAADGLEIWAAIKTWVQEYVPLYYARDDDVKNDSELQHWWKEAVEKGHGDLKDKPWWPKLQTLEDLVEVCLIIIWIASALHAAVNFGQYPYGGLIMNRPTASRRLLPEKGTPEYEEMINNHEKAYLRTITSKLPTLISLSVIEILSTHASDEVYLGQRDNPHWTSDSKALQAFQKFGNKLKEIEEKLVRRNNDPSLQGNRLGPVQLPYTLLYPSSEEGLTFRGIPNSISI

[13] = Homo sapiens, HCT-116, 72 h, read-out: IC50 HCT116, MTT, 72 h
[14] = read-out: IC50 HCT116, MTT, 72 h

In the case of `O=c1cc(-c2ccccc2)oc2cc(O)c(O)c(O)c12` [Molecule M7, 5,6,7-trihydroxyflavone], the IC50 ([1]; previous study ref 16, read-out: DPPH assay IC50) is listed as 21.2 µM, the IC50 [2, 13] is listed as 38.5 ± 1.3 µM and the “effect on Aβ1-40-induced dementia” value [3] is listed as “perfected Aβ1-40-induced dementia in rats”. For the same compound, the “Anti SOD %” value [4] was 71.2 ± 2.3%, the IC50 [5] was 1000 nM and the IC50 ([6]; Anti SOD IC50) was 36.5 ± 1.2 µM. The IC50 ([6]; read-out: Anti SOD IC50) was 31.5 ± 0.5 µM, the “porcine pancreas α-amylase inhibition” value [7] was 13.2 ± 2.4% and the IC50 ([8]; Homo sapiens, MCF7, 72 h) was 33.1 ± 1.4 µM. It also gave an IC50 [9] of 10.2 ± 3 µM.

For `O=c1cc(-c2cc(O)cc(O)c2)oc2ccccc12` [Molecule M8, 3′,5′-dihydroxyflavone], the IC50 [2, 13] was 33.1 ± 0.1 µM, the “Anti XOD %” value [10] was 75.3 ± 1.6% and the “Anti SOD %” value [4] was 52.3 ± 0.9%. The IC50 ([6]; read-out: Anti SOD IC50) was greater than 50 µM, the IC50 ([8]; Homo sapiens, MCF7, 72 h) was 40.4 ± 0.7 µM and the IC50 ([9]; read-out: Anti ACHE IC50) was greater than 100 µM.

For `COc1ccc(-c2oc3c(CC=C(C)C)c(O[C@@H]4O[C@H](CO)[C@@H](O)[C@H](O)[C@H]4O)cc(O)c3c(=O)c2O[C@@H]2O[C@@H](C)[C@H](O)[C@@H](O)[C@H]2O)cc1` [Molecule M2, Icariin], the “DPPH assay antioxidant activity” value ([1]; tested at 147.78 µM ref 17) is given as 3.8 ± 1.0%, the IC50 [2, 13] is given as greater than 50 µM and the “Anti SOD %” value [4] is given as 61.7 ± 1.1%. For the same compound, the “ABTS assay antioxidant activity” value [11] was 14.6 ± 0.1%, the IC50 ([6]; read-out: Anti SOD IC50) was greater than 50 µM and the IC50 ([8]; Homo sapiens, MCF7, 72 h) was greater than 100 µM. For the same compound, the IC50 [9] was greater than 100 µM.

In the case of `O=c1cc(-c2cccc(O)c2)oc2ccc3ccccc3c12` [Molecule M9, 3′-hydroxy-b-naphthoflavone], the IC50 [2, 13] is reported as greater than 50 µM, the “Anti SOD %” value [4] is reported as 19.8 ± 2.9% and the IC50 ([6]; read-out: Anti SOD IC50) is reported as greater than 100 µM. The IC50 ([8]; Homo sapiens, MCF7, 72 h) was greater than 50 µM and the IC50 ([9]; read-out: Anti ACHE IC50) was greater than 100 µM.

With `O=c1cc(-c2ccccc2)oc2ccc(O)cc12` [Molecule M3, 6-hydroxyflavone] the IC50 [2, 13] was greater than 100 µM, the IC50 [2, 14] was greater than 50 µM and the “Anti SOD %” value [4] was 54.8 ± 3.2%. The “Anti 15-Lipoxygenase %” value [12] was “ineffective”, the IC50 ([6]; read-out: Anti SOD IC50) was greater than 50 µM and the “porcine pancreas α-amylase inhibition” value [7] was 4.5 ± 1.1%. For the same compound, the IC50 ([8]; Homo sapiens, MCF7, 72 h) was greater than 50 µM and the IC50 ([9]; read-out: Anti ACHE IC50) was greater than 100 µM.

With `O=c1cc(-c2ccccc2)oc2cc(O)cc(O)c12` [Molecule M1, 5,7-dihydroxyflavone] the IC50 [2, 13] was greater than 100 µM, the IC50 [2, 14] was greater than 50 µM and the “Anti SOD %” value [4] was 41.5 ± 1.8%. The “Anti 15-Lipoxygenase %” value [12] was “ineffective”, the IC50 ([6]; Anti SOD IC50) was greater than 100 µM and the IC50 ([8]; Homo sapiens, MCF7, 72 h) was 35.9 ± 0.8 µM. The IC50 [9] was greater than 100 µM.

In the case of `O=c1cc(-c2ccccc2)oc2cc(O)ccc12` [Molecule M5, 7-hydroxyflavone], the IC50 [2, 13] is reported as greater than 100 µM, the IC50 [2, 14] is reported as greater than 50 µM and the “Anti SOD %” value [4] is reported as 74.3 ± 3.1% and 74.3 ± 3.02%. The “Anti 15-Lipoxygenase %” value [12] was “ineffective”, the IC50 ([6]; read-out: Anti SOD IC50) was 36.5 ± 1.2 µM and the “porcine pancreas α-amylase inhibition” value [7] was 4.8 ± 3.6%. It also gave an IC50 ([8]; Homo sapiens, MCF7, 72 h) greater than 50 µM and an IC50 [9] greater than 100 µM.

For `O=c1cc(-c2ccccc2)oc2cccc(O)c12` [Molecule M4, 5-hydroxyflavone], the IC50 [2, 13] was greater than 100 µM, the IC50 [2, 14] was greater than 50 µM and the “Anti SOD %” value [4] was 25.9 ± 2.5%. The “Anti 15-Lipoxygenase %” value [12] was “ineffective”, the IC50 ([6]; Anti SOD IC50) was greater than 100 µM and the “porcine pancreas α-amylase inhibition” value [7] was “ineffective”. For the same compound, the IC50 ([8]; 72 h) was greater than 100 µM, the IC50 ([8]; Homo sapiens, MCF7, 72 h) was greater than 50 µM and the IC50 [9] was greater than 100 µM.

With `O=c1cc(-c2cccc(O)c2)oc2cc(O)ccc12` [Molecule M13, 7,3′-dihydroxyflavone] the IC50 [2, 13] was 39.3 ± 0.8 µM, the “Anti XOD %” value [10] was 64.2 ± 1.2% and the “Anti SOD %” value [4] was 56.6 ± 1.7%. The IC50 ([6]; read-out: Anti SOD IC50) was greater than 50 µM, the IC50 ([8]; Homo sapiens, MCF7, 72 h) was 38.5 ± 1.2 µM and the IC50 ([9]; read-out: Anti ACHE IC50) was greater than 50 µM.

For `COc1cc(-c2cc(=O)c3ccc4c(O)cccc4c3o2)cc(OC)c1OC` [Molecule M18, 7-hydroxy-3′,4′,5′-trimethoxy-α-naphthoflavone], the IC50 [2, 13] was 45 ± 0.9 µM, the “Anti XOD %” value [10] was 19.4 ± 1.0% and the “Anti SOD %” value [4] was 32.7 ± 3.9%. It also gave an IC50 ([6]; read-out: Anti SOD IC50) greater than 100 µM, an IC50 ([8]; Homo sapiens, MCF7, 72 h) greater than 50 µM and an IC50 ([9]; read-out: Anti ACHE IC50) greater than 100 µM.
